# Test results from patent US20220288004A1, “TREATMENT AND PREVENTION OF AGING RELATED-DISEASE AND/OR AGING BY THE INHIBITION OF SPHINGOLIPIDS” (ECOLE POLYTECHNIQUE FEDERALE DE LAUSANNE (EPFL), priority 2019, published 2022).
# Tested on: quadriceps muscle of aged C57Bl/6JRj mice
# Experiment: Quadriceps transcript profiling using RNA sequencing
# Type: in vivo, mouse
# Conditions: aged myriocin vs DMSO treated mice
# Method: To identify biological pathways whose modulation could explain improved muscle function upon myriocin treatment, transcriptomes of quadriceps muscle of aged myriocin and DMSO treated mice using RNA sequencing were compared. Gene set enrichment analysis (GSEA) ranking transcripts based on their fold change were performed.
# Quadriceps transcript profiling using RNA sequencing. Quadriceps muscles were collected and snap-frozen in liquid nitrogen from C57Bl/6JRj mice undergoing intraperitoneal myriocin treatment for 10 weeks on a chow diet starting at the age of 18 months. RNA was isolated using Direct-zol RNA kit (Zymo, Irvine, Calif.). RNA quality was assessed using Agilent 2100 BioAnalyzer (Agilent, Santa Clara, Calif.). Samples with RIN≥8, 28S/18S≥1.0, and c≥20 ng/μL were included in analyses. […] Sequencing libraries were prepared by BGI genomics using the DNBsea™ technology. Paired end sequencing with 100 cycles was performed using the BGISEQ-500 instrument. After removal of adaptor sequences and low quality reads, at least 56 million reads per sample was obtained. SOAPnuke was used to obtain clean reads (parameters -l 15, -q 0.2, -n 0.05). Reads were mapped using STAR aligner version 2.5.2b using the mouse GRCm38 genome assembly and the release 91 GTF annotation from Ensembl. Htseq-count version 0.6.0 was used to count the number of reads mapping to genes (mode=union, type=exon, idattr=gene_id). Transcript displaying higher expression than log 2(CPM+1)>0.5 in at least 3 samples were included in analyses. Differential gene expression analysis and expression normalization was performed using voom, ‘variance modeling at the observational level’, adjusting for sacrifice date. At individual gene level, no gene passed the multiple testing correction threshold. Benjamini-Hochberg correction for multiple testing was used. For gene set enrichment analysis using gene ontology (GO) categories, transcripts were ordered according to their log 2-transformed fold change, and 100,000 permutations were used. Adjusted p-value<0.05 was considered significant.
smiles,measurement,setting,value
"CCCCCCC(=O)CCCCCCC=CCC(O)C(O)C(N)(CO)C(=O)O (stereo not shown) [myriocin, 2-Amino-3,4-dihydroxy-2-(hydroxymethyl)-14-oxoicos-6-enoic acid]",expression of Pax7 in quadriceps muscle,,upregulated
same,most downregulated pathways (gene set enrichment analysis),quadriceps RNA-seq,lipid metabolism and inflammation
same,upregulated pathways (gene set enrichment analysis),quadriceps RNA-seq,muscle contraction and differentiation
same,Myog and Myf5 transcripts in skeletal muscle,quadriceps,upregulated
